Results reported in US20240124503A1, “HETEROAROMATIC PHOSPHONIUM SALTS AND THEIR USE TREATING CANCER” (FLORATEK PHARMA S.A., priority 2021, published 2024).

How the values were obtained:
Format in all cases: cell-based
[1] = system: SK-N-AS; assay: Cell viability assay, SK-N-AS; settings: Homo sapiens; brain carcinoma cell line SK-N-AS
Procedure: (§1) Antitumor activity of the compounds and doxorubicin as a positive control was assessed by using the CellTiter-Blue Cell Viability Assay (Promega, #G8082) or CellTiter-Glow® Luminescent Cell Viability assay (Promega #G7572) according to the manufacturer's instructions. The compounds were tested at 5 or 6 concentrations in half-log increments (highest concentration 30 μM or 100 μM) in duplicate or triplicate well conditions.
(§2) Tumor cells were grown at 37° C. in a humidified atmosphere with 5% CO2 in RPMI 1640 or DMEM medium, supplemented with 10% (v/v) fetal calf serum and 50 μg/ml gentamicin for up to 20 passages, and were passaged once or twice weekly. Cells were harvested using TrypLE or PBS buffer containing 1 mM EDTA, and the percentage of viable cells was determined using a CASY Model TI cell counter (OMNI Life Science). Cells were harvested from exponential phase cultures, counted and plated in 96 well flat-bottom microtiter plates at a cell density depending on the cell line's growth rate (4,000-20,000 cells/well depending on the cell line's growth rate, up to 60,000 for hematological cancer cell lines) in RPMI 1640 or DMEM medium supplemented with 10% (v/v) fetal calf serum and 50 μg/ml gentamicin (140 μl/well). […] Viability of cells was quantified by the CellTiter-Blue® cell viability assay (Promega G8081) or CellTiter-Glow® Luminescent Cell Viability assay (Promega #G7572). […]

[2] = system: parental H69 cells; assay: Cell viability assay, parental H69 cells; settings: Homo sapiens, NCI-H69; parental H69 cells (SCLC)
Procedure: as §1, §2

[3] = system: stomach PDX; assay: Cell viability, stomach PDX (panel statement); settings: text summary of Table 22; read-out: IC50, stomach PDX growth
Procedure: (§3) PDX-derived cell cultures were obtained from tumors explanted from mice and isolated by mechanical and enzymatic dissociation. […] Cells were harvested and seeded in 96-wells plates at a density of 1.25 to 5×10^3 cells/well for cytotoxicity assays. Cells were incubated 48 h at 37° C. prior to addition of test molecules and vehicle (DMSO, 0.1%) at desired final concentrations. Cell viability was assessed before drugs' addition (To) and 5 days after test molecules addition by measuring ATP cell content using CellTiter-Glo® Luminescent Cell Viability Assay (Promega) according to the manufacturer's instructions. Luciferase activity was measured on a luminometer (PerkinElmer® EnVision™). Each concentration of compounds was tested in triplicate.
(§4) Viability was calculated as a percentage of ATP value compared to vehicle treated controls.
(§5) For PDX primary cell cultures, the tumour tissue was washed with PBS containing antibiotic-antimycotic and non-tumour tissue and necrotic tumour tissues were separated. The tumour tissue was transferred to a new dish and cut into 1˜2 mm^3 fragments, resuspended in RPMI-1640 medium and centrifuged at 1,200 rpm for 6 min at room temperature. The pelleted material was resuspended with 15 mL of Tumour Cell Digestion Solution and incubated at 37° C. for 1 hour with agitation. […]

[4] = system: Mia-Pa-Ca-2; assay: Cell viability assay, Mia-Pa-Ca-2; settings: Homo sapiens, MIA PaCa-2; pancreatic carcinoma cell line Mia-Pa-Ca-2
Procedure: as §1, §2

[5] = system: pancreatic PDX; assay: Cell viability, pancreatic PDX (panel statement); settings: Table 19; read-out: IC50, pancreatic PDX growth
Procedure: as §3, §4, §5

[6] = system: CHP-134; assay: Cell viability assay, CHP-134; settings: Homo sapiens; brain carcinoma cell line CHP-134
Procedure: as §1, §2

[7] = system: breast PDX; assay: Cell viability, breast PDX (panel statement); settings: Table 5; read-out: IC50, growth of breast PDX
Procedure: as §3, §4, §5

- IC50 [1]: 3000 nM
- IC50 [4]: 330 nM
SMILES: COc1c(O)ccc2c(=O)c(O)c(-c3ccc(CCCC[P+](c4ccccc4)(c4ccccc4)c4ccccc4)cc3)oc12 [SND190, (4-(4-(3,7-Dihydroxy-8-methoxy-4-oxo-4H1-chromen-2-yl)phenyl)butyl)triphenylphosphonium bromide]
- IC50 [2]: 1420 nM
- IC50 [3]: < 20000 nM
- IC50 [5]: < 10000 nM
- IC50 [6]: 1100 nM
- IC50 [7]: < 20000 nM
